In ChEMBL document CHEMBL1154409, “Contribution of the CmeABC efflux pump to macrolide and tetracycline resistance in Campylobacter jejuni” (2007):
≈ marks a conversion by molar mass, not a printed value. Peptide text beside a SMILES is read from it. * marks the point of attachment. βNA = c1ccc2cc(N*)ccc2c1

Legend:
Campylobacter jejuni [1] = assay: Inactivation of CmeABC efflux pump in Campylobacter jejuni 25-19 assessed as change in erythromycin MIC by agar dilution method
[2] = molecular target: T1, CmeA (Campylobacter jejuni) (UniProt Q8RTE5); assay: Inactivation of CmeABC efflux pump in Campylobacter jejuni 25-19 assessed as change in clarithromycin MIC by agar dilution method
T1 sequence (whole entry): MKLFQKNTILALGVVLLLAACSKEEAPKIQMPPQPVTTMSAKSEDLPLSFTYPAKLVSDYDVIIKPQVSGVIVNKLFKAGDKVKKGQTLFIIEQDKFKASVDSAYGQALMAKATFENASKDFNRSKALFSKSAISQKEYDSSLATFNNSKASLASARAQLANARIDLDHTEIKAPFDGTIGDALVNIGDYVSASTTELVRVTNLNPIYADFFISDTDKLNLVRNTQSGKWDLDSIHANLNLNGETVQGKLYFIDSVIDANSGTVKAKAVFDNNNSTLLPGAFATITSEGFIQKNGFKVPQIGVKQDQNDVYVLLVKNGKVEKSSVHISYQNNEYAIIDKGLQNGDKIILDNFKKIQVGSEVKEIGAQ

Campylobacter jejuni [3] = assay: Antibacterial activity against Campylobacter jejuni UA709 cmeB::kanamycin-resistant mutant by agar dilution method; type: functional
Campylobacter jejuni [4] = assay: Antibacterial activity against Campylobacter jejuni 001B-22 carrying A2075G mutation in 23S rRNA by agar dilution method; type: functional
Campylobacter jejuni [5] = assay: Antibacterial activity against Campylobacter jejuni UA709 carrying A2074C mutation in 23S rRNA by agar dilution method; type: functional
Campylobacter jejuni [6] = assay: Antibacterial activity against Campylobacter jejuni 001B-22 cmeB::kanamycin-resistant mutant by agar dilution method; type: functional
Campylobacter jejuni [7] = assay: Antibacterial activity against Campylobacter jejuni 001B-40 cmeB::kanamycin-resistant mutant by agar dilution method; type: functional
Campylobacter jejuni [8] = assay: Ratio of MIC for Campylobacter jejuni 001B-40 carrying A2075G mutation in 23S rRNA to MIC for Campylobacter jejuni 001B-40 cmeB::kanamycin-resistant mutant; type: functional
Campylobacter jejuni [9] = assay: Antibacterial activity against Campylobacter jejuni 001B-40 carrying A2075G mutation in 23S rRNA by agar dilution method; type: functional
Campylobacter jejuni [10] = assay: Ratio of MIC for Campylobacter jejuni 001B-22 carrying A2075G mutation in 23S rRNA to MIC for Campylobacter jejuni 001B-22 cmeB::kanamycin-resistant mutant; type: functional
Campylobacter jejuni [11] = assay: Antibacterial activity against Campylobacter jejuni 25-19 by agar dilution method; type: functional
Campylobacter jejuni [12] = assay: Antibacterial activity against Campylobacter jejuni 25-45 cmeB:: Kanamycin-resistant mutant by agar dilution method; type: functional
Campylobacter jejuni [13] = assay: Antibacterial activity against Campylobacter jejuni 15-21 by […]; type: functional
Escherichia coli [14] = assay: Antibacterial activity against wild type Escherichia coli DH5alpha by agar dilution assay; type: functional
Campylobacter jejuni [15] = assay: Antibacterial activity against Campylobacter jejuni 81-176 carrying tet(O)+ gene by agar dilution method; type: functional
Escherichia coli [16] = assay: Antibacterial activity against Escherichia coli EW1b containing pDOB47; type: functional
Campylobacter jejuni [17] = assay: Antibacterial activity against Campylobacter jejuni 25-45 by agar dilution method; type: functional
Campylobacter jejuni [18] = assay: Antibacterial activity against Campylobacter jejuni 23-51 assessed as inhibition of CmeABC efflux pump by agar dilution method; type: functional
Campylobacter jejuni [19] = assay: Antibacterial activity against Campylobacter jejuni 81-176 cmeB: kanamycin-resistant mutant carrying tet(O)+ gene; type: functional
Campylobacter jejuni [20] = assay: Antibacterial activity against Campylobacter jejuni 15-21 cmeB:: Kanamycin-resistant mutant by agar dilution method; type: functional
Campylobacter jejuni [21] = assay: Antibacterial activity against Campylobacter jejuni 23-51 cme:: Kanamycin-resistant mutant assessed by agar dilution method; type: functional
Campylobacter jejuni [22] = assay: Antibacterial activity against Campylobacter jejuni 25-19 cmeB:: Kanamycin-resistant mutant by agar dilution method; type: functional

SMILES | fold change (FC) (Campylobacter jejuni [1]) | MIC (Campylobacter jejuni [3]) [µg/mL] | MIC (Campylobacter jejuni [4]) [µg/mL] | MIC (Campylobacter jejuni [5]) [µg/mL] | MIC (Campylobacter jejuni [6]) [µg/mL] | MIC (Campylobacter jejuni [7]) [µg/mL] | MIC (Campylobacter jejuni [9]) [µg/mL] | fold change (FC) (Campylobacter jejuni [10]) | other results
N=C(N)NCCC[C@H](NC(=O)[C@@H](N)Cc1ccccc1)C(=O)Nc1ccc2ccccc2c1 (H-Phe-Arg-βNA) | 3 | – | – | – | – | – | – | – | fold change (FC) [2]: 2
CC[C@H]1OC(=O)[C@H](C)[C@@H](O[C@H]2C[C@@](C)(OC)[C@@H](O)[C@H](C)O2)[C@H](C)[C@@H](O[C@@H]2O[C@H](C)C[C@H](N(C)C)[C@H]2O)[C@](C)(OC)C[C@@H](C)C(=O)[C@H](C)[C@@H](O)[C@]1(C)O [CLARITHROMYCIN] | 2 | 128 (≈ 171 µM) | 64 (≈ 85.6 µM) | 128 (≈ 171 µM) | 4 (≈ 5.35 µM) | 8 (≈ 10.7 µM) | 265 (≈ 354 µM) | 16 | fold change (FC) (Campylobacter jejuni [8]): >32
CC[C@H]1OC(=O)[C@H](C)[C@@H](O[C@H]2C[C@@](C)(OC)[C@@H](O)[C@H](C)O2)[C@H](C)[C@@H](O[C@@H]2O[C@H](C)C[C@H](N(C)C)[C@H]2O)[C@](C)(O)C[C@@H](C)C(=O)[C@H](C)[C@@H](O)[C@]1(C)O [ERYTHROMYCIN] | – | 1020 (≈ 1400 µM) | 256 (≈ 349 µM) | 1020 (≈ 1400 µM) | 4 (≈ 5.45 µM) | 8 (≈ 10.9 µM) | > 1020 | 64 | –
CN(C)[C@@H]1C(O)=C(C(N)=O)C(=O)[C@@]2(O)C(O)=C3C(=O)c4c(O)cccc4[C@@](C)(O)[C@H]3C[C@@H]12 [TETRACYCLINE] | – | – | – | – | – | – | – | – | MIC (Campylobacter jejuni [11]): 64 µg/mL (≈ 144 µM); MIC (Campylobacter jejuni [12]): 8 µg/mL (≈ 18 µM); MIC (Campylobacter jejuni [13]): 128 µg/mL (≈ 288 µM); MIC (Escherichia coli [14]): 64 µg/mL (≈ 144 µM); MIC (Campylobacter jejuni [15]): 32 µg/mL (≈ 72 µM); MIC (Escherichia coli [16]): 16 µg/mL (≈ 36 µM); MIC (Campylobacter jejuni [17]): 256 µg/mL (≈ 576 µM); MIC (Campylobacter jejuni [18]): 512 µg/mL (≈ 1150 µM); MIC (Campylobacter jejuni [19]): 2 µg/mL (≈ 4.5 µM); MIC (Campylobacter jejuni [20]): 4 µg/mL (≈ 9 µM); MIC (Campylobacter jejuni [21]): 8 µg/mL (≈ 18 µM); MIC (Campylobacter jejuni [22]): 4 µg/mL (≈ 9 µM)
